#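 Following 48 hours of exposure in 96-well plates, responses at five concentrations were used to interpolate endpoints linearly. At the GI50, growth is halved.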 The source made the active and inactive calls. No stated cut-off is given here; in the data, active = GI50 up to about 1.1 µM and inactive = higher.
# Key:
# Assay in all cases: NCI-60 cell line screen, 48 h
# DMS-114 = tested on: DMS-114
# 786-0 = tested on: 786-0
# SF-295 = tested on: SF-295
# NCI-H460 = tested on: NCI-H460
# A498 = tested on: A498
# UO-31 = tested on: UO-31
# NCI-H23 = tested on: NCI-H23
# UACC-257 = tested on: UACC-257
# RPMI-8226 = tested on: RPMI-8226
# K562 = tested on: K562
# SF-268 = tested on: SF-268
# RXF 393 = tested on: RXF 393
# LXFL 529 = tested on: LXFL 529
# SNB-78 = tested on: SNB-78
# OVCAR-3 = tested on: OVCAR-3
# SNB-19 = tested on: SNB-19
# ACHN = tested on: ACHN
# NCI-H522 = tested on: NCI-H522
# SR = tested on: SR
# SK-OV-3 = tested on: SK-OV-3
# COLO 205 = tested on: COLO 205
# HOP-92 = tested on: HOP-92
# Malme-3M = tested on: Malme-3M
# OVCAR-4 = tested on: OVCAR-4
# CCRF-CEM = tested on: CCRF-CEM
# M19-MEL = tested on: M19-MEL
# SNB-75 = tested on: SNB-75
# UACC-62 = tested on: UACC-62
# HCT-116 = tested on: HCT-116
# IGROV-1 = tested on: IGROV-1
# SK-MEL-28 = tested on: SK-MEL-28
# U-251 = tested on: U-251
# HOP-62 = tested on: HOP-62
# KM12 = tested on: KM12
# M14 = tested on: M14
# KM-20L2 = tested on: KM-20L2
# OVCAR-5 = tested on: OVCAR-5
# MOLT-4 = tested on: MOLT-4
# HT-29 = tested on: HT-29
# SK-MEL-2 = tested on: SK-MEL-2
# A549 = tested on: A549
# DMS-273 = tested on: DMS-273
# SF-539 = tested on: SF-539
# SK-MEL-5 = tested on: SK-MEL-5
# EKVX = tested on: EKVX
# XF498 = tested on: XF498
# OVCAR-8 = tested on: OVCAR-8
# SN12C = tested on: SN12C
# HL-60 = tested on: HL-60
# LOX IMVI = tested on: LOX IMVI
# CAKI-1 = tested on: CAKI-1
# SW-620 = tested on: SW-620
# HCT-15 = tested on: HCT-15
# TK-10 = tested on: TK-10
# NCI-H226 = tested on: NCI-H226
# DLD-1 = tested on: DLD-1
structure (smiles),measurement,setting,value
COc1ccc2c(c1)CC[C@@H]1C2CC[C@](C)(C#N)C1CC#N (stereo partly specified),GI50,DMS-114,> 100 µM (inactive)
same,GI50,786-0,> 100 µM (inactive)
same,GI50,SF-295,> 100 µM (inactive)
same,GI50,NCI-H460,> 100 µM (inactive)
same,GI50,A498,> 100 µM (inactive)
same,GI50,UO-31,> 100 µM (inactive)
same,GI50,NCI-H23,> 100 µM (inactive)
same,GI50,UACC-257,> 100 µM (inactive)
same,GI50,RPMI-8226,> 100 µM (inactive)
same,GI50,K562,> 100 µM (inactive)
same,GI50,SF-268,> 100 µM (inactive)
same,GI50,RXF 393,> 100 µM (inactive)
same,GI50,LXFL 529,> 100 µM (inactive)
same,GI50,SNB-78,> 100 µM (inactive)
same,GI50,OVCAR-3,> 100 µM (inactive)
same,GI50,SNB-19,> 100 µM (inactive)
same,GI50,ACHN,> 100 µM (inactive)
same,GI50,NCI-H522,> 100 µM (inactive)
same,GI50,SR,> 100 µM (inactive)
same,GI50,SK-OV-3,> 100 µM (inactive)
same,GI50,COLO 205,> 100 µM (inactive)
same,GI50,HOP-92,> 100 µM (inactive)
same,GI50,Malme-3M,> 100 µM (inactive)
same,GI50,OVCAR-4,> 100 µM (inactive)
same,GI50,CCRF-CEM,> 100 µM (inactive)
same,GI50,M19-MEL,> 100 µM (inactive)
same,GI50,SNB-75,> 100 µM (inactive)
same,GI50,UACC-62,> 100 µM (inactive)
same,GI50,HCT-116,> 100 µM (inactive)
same,GI50,IGROV-1,> 100 µM (inactive)
same,GI50,SK-MEL-28,> 100 µM (inactive)
same,GI50,U-251,> 100 µM (inactive)
same,GI50,HOP-62,> 100 µM (inactive)
same,GI50,KM12,> 100 µM (inactive)
same,GI50,M14,> 100 µM (inactive)
same,GI50,KM-20L2,> 100 µM (inactive)
same,GI50,OVCAR-5,> 100 µM (inactive)
same,GI50,MOLT-4,> 100 µM (inactive)
same,GI50,HT-29,> 100 µM (inactive)
CCOC(=O)C1=C(N)N(c2ccccc2)/C(=C(/C#N)c2nc3ccccc3[nH]2)S1,GI50,SK-MEL-2,> 100 µM (inactive)
same,GI50,786-0,> 100 µM (inactive)
same,GI50,SF-295,> 100 µM (inactive)
same,GI50,NCI-H460,43 µM (inactive)
same,GI50,A498,> 100 µM (inactive)
same,GI50,UO-31,> 100 µM (inactive)
same,GI50,NCI-H23,> 100 µM (inactive)
same,GI50,UACC-257,> 100 µM (inactive)
same,GI50,A549,> 100 µM (inactive)
same,GI50,DMS-273,> 100 µM (inactive)
same,GI50,SF-539,> 100 µM (inactive)
same,GI50,SK-MEL-5,> 100 µM (inactive)
same,GI50,EKVX,> 100 µM (inactive)
same,GI50,K562,> 100 µM (inactive)
same,GI50,XF498,> 100 µM (inactive)
same,GI50,OVCAR-8,> 100 µM (inactive)
same,GI50,SN12C,> 100 µM (inactive)
same,GI50,SF-268,80.9 µM (inactive)
same,GI50,HL-60,> 100 µM (inactive)
same,GI50,LOX IMVI,> 100 µM (inactive)
same,GI50,CAKI-1,> 100 µM (inactive)
same,GI50,RXF 393,> 100 µM (inactive)
same,GI50,LXFL 529,> 100 µM (inactive)
same,GI50,SNB-78,> 100 µM (inactive)
same,GI50,OVCAR-3,> 100 µM (inactive)
same,GI50,SNB-19,> 100 µM (inactive)
same,GI50,ACHN,> 100 µM (inactive)
same,GI50,NCI-H522,> 100 µM (inactive)
same,GI50,SW-620,> 100 µM (inactive)
same,GI50,SK-OV-3,> 100 µM (inactive)
same,GI50,COLO 205,> 100 µM (inactive)
same,GI50,HOP-92,> 100 µM (inactive)
same,GI50,Malme-3M,> 100 µM (inactive)
same,GI50,OVCAR-4,> 100 µM (inactive)
same,GI50,HCT-15,> 100 µM
same,GI50,CCRF-CEM,> 100 µM (inactive)
same,GI50,M19-MEL,> 100 µM (inactive)
same,GI50,SNB-75,> 100 µM (inactive)
same,GI50,UACC-62,> 100 µM (inactive)
same,GI50,TK-10,> 100 µM (inactive)
same,GI50,HCT-116,> 100 µM (inactive)
same,GI50,IGROV-1,> 100 µM (inactive)
same,GI50,SK-MEL-28,> 100 µM (inactive)
same,GI50,NCI-H226,> 100 µM (inactive)
same,GI50,U-251,> 100 µM (inactive)
same,GI50,HOP-62,> 100 µM (inactive)
same,GI50,M14,> 100 µM (inactive)
same,GI50,DLD-1,> 100 µM (inactive)
same,GI50,KM-20L2,> 100 µM (inactive)
same,GI50,OVCAR-5,> 100 µM (inactive)
same,GI50,MOLT-4,> 100 µM (inactive)
same,GI50,HT-29,> 100 µM (inactive)

# From ChEMBL document CHEMBL1201862, “PubChem BioAssay data set” (2004)
